# “Also recorded” adds a separate entry of the source.
# Columns and labels:
# Dopamine D1 = Dopamine D1 (Homo sapiens, UniProt P21728); experiment: Cerep screen, ligand binding; conditions: radioligand binding assays and broad panel screen
# Dopamine D2(s) = Dopamine D2(s) (Homo sapiens, UniProt P14416); experiment: Cerep screen, ligand binding; conditions: radioligand binding assays and broad panel screen
# human VMAT1 transporter = target: T1, human VMAT1 transporter (Homo sapiens, UniProt P54219); experiment: Uptake in cells expressing VMAT1; assay type: cell-based; conditions: concentrations up to 10 μM
# T1 construct: expressed in transfected cells
# T1 sequence (P54219 1-525): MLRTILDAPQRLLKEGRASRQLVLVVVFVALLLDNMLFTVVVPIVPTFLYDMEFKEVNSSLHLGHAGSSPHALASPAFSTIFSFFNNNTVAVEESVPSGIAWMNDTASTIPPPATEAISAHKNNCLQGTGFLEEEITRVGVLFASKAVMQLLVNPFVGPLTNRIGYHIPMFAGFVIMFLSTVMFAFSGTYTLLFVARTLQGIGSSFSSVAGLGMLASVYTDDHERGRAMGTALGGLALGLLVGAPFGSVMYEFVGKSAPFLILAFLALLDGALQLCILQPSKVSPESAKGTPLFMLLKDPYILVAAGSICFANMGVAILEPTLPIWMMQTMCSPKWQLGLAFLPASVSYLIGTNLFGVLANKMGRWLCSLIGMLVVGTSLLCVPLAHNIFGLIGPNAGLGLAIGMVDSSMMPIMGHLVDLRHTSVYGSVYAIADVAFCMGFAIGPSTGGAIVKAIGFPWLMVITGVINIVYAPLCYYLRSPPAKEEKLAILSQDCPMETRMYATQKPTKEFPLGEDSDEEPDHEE
# Method: None of the TBZ or VBZ metabolites had any affinity for the monoamine transporters DAT, SERT or NET. To complete the selectivity profile for VMAT2, the functional activity for the human VMAT1 transporter of these compounds was tested in cells expressing VMAT1.
# ptosis = experiment: Ptosis, in vivo surrogate measure
# serum prolactin = experiment: Prolactin release, in vivo surrogate measure
# Dopamine D2(s), sequence (P14416 1-414 isoform P14416-2): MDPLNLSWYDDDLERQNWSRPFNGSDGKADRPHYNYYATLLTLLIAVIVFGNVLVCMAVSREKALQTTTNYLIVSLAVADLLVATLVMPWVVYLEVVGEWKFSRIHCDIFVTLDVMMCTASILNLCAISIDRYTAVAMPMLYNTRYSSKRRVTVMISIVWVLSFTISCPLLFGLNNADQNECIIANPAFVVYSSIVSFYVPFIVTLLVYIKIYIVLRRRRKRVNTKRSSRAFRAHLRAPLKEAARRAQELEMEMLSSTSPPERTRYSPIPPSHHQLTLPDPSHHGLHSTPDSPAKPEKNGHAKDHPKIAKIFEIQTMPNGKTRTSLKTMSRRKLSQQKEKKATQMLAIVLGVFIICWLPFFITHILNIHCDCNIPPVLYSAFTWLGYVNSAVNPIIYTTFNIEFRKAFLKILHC
# Dopamine D1, sequence (P21728 whole entry): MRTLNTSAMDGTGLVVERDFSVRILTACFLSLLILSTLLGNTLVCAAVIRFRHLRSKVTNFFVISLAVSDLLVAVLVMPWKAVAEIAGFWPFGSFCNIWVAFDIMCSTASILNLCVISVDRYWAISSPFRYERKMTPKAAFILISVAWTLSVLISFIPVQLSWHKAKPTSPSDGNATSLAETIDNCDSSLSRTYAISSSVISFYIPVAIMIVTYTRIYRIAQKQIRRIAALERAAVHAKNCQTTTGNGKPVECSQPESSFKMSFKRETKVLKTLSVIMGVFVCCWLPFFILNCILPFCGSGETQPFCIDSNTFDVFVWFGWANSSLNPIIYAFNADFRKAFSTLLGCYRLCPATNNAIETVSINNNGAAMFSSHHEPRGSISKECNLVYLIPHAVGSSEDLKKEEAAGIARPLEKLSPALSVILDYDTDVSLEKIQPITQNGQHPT
Structure (SMILES),interaction with D1 receptors (Dopamine D1),interaction with D2 receptors (Dopamine D2(s)),inhibition of uptake through VMAT1 (human VMAT1 transporter),induction of ptosis (ptosis),increase in serum prolactin levels (serum prolactin)
"COc1cc2c(cc1OC)[C@@H]1C[C@@H](O)[C@@H](CC(C)C)CN1CC2 [R,S,S-DHTBZ]",interact with D1 and D2 receptors,interact with D1 and D2 receptors,–,–,–
"COc1cc2c(cc1OC)[C@@H]1C[C@H](O)[C@@H](CC(C)C)CN1CC2 [S,S,S-DHTBZ]",interact with D1 and D2 receptors,interact with D1 and D2 receptors,–,–,–
"COc1cc2c(cc1OC)C1CC(=O)C(CC(C)C)CN1CC2 (centres unmarked) [TBZ, reference compound]",–,–,no significant inhibitory activity; also recorded: no significant effect on the uptake of monoamines through VMAT1,induced ptosis in an equivalent manner,increase in serum prolactin levels
"COC(=O)[C@H]1[C@H]2C[C@@H]3c4[nH]c5cc(OC)ccc5c4CCN3C[C@H]2C[C@@H](OC(=O)c2cc(OC)c(OC)c(OC)c2)[C@@H]1OC [reserpine, reference compound]",–,–,substantially inhibited uptake through VMAT1,–,–

# Reference: patent publication US10993941B2, “Methods for the administration of certain VMAT2 inhibitors” (Neurocrine Biosciences, Inc., priority 2017, dated 2021)
